Assay results: ChEMBL document CHEMBL1201862, “PubChem BioAssay data set” (2004)
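In this assay, cells in 96-well plates receive the compound at five concentrations for 48 hours. Endpoints are linearly interpolated between the surrounding concentrations. Abbreviation: GI50, concentration required for 50% inhibition of growth.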 Calls of active or inactive are those of the source. Cut-off read from the data, not from the text of the source: active = GI50 up to about 1.1 µM and inactive = higher.

Tests used:
Test in all cases: growth of human tumour cells (NCI), 48 h
786-0 = system: 786-0
A549 = system: A549
ACHN = system: ACHN
CAKI-1 = system: CAKI-1
CCRF-CEM = system: CCRF-CEM
COLO 205 = system: COLO 205
HL-60 = system: HL-60
HOP-62 = system: HOP-62
IGROV-1 = system: IGROV-1
K562 = system: K562
M14 = system: M14
MCF7 = system: MCF7
MDA-MB-435 = system: MDA-MB-435
MOLT-4 = system: MOLT-4
Malme-3M = system: Malme-3M
NCI-H23 = system: NCI-H23
NCI-H460 = system: NCI-H460
NCI/ADR-RES = system: NCI/ADR-RES
OVCAR-4 = system: OVCAR-4
OVCAR-5 = system: OVCAR-5
RPMI-8226 = system: RPMI-8226
RXF 393 = system: RXF 393
SF-268 = system: SF-268
SK-MEL-28 = system: SK-MEL-28
SK-MEL-2 = system: SK-MEL-2
SK-MEL-5 = system: SK-MEL-5
SK-OV-3 = system: SK-OV-3
SNB-75 = system: SNB-75
SR = system: SR
SW-620 = system: SW-620
T47D = system: T47D
U-251 = system: U-251
UACC-62 = system: UACC-62
DU-145 = system: DU-145
EKVX = system: EKVX
HCC 2998 = system: HCC 2998
HCT-116 = system: HCT-116
HCT-15 = system: HCT-15
HOP-92 = system: HOP-92
HT-29 = system: HT-29
Hs-578T = system: Hs-578T
KM12 = system: KM12
LOX IMVI = system: LOX IMVI
MDA-MB-231 = system: MDA-MB-231
NCI-H226 = system: NCI-H226
NCI-H522 = system: NCI-H522
OVCAR-3 = system: OVCAR-3
OVCAR-8 = system: OVCAR-8
PC-3 = system: PC-3
SF-295 = system: SF-295
SF-539 = system: SF-539
SN12C = system: SN12C
SNB-19 = system: SNB-19
TK-10 = system: TK-10
UACC-257 = system: UACC-257
UO-31 = system: UO-31

For `COc1ccc(-c2coc3cc(O)cc(O)c3c2=O)cc1` [BIOCHANIN], the GI50 (786-0) was > 10 µM (inactive), the GI50 (A549) was > 10 µM (inactive) and the GI50 (ACHN) was > 10 µM (inactive). For the same compound, the GI50 (CAKI-1) was > 10 µM (inactive), the GI50 (CCRF-CEM) was > 10 µM (inactive) and the GI50 (COLO 205) was > 10 µM (inactive). For the same compound, the GI50 (HL-60) was > 10 µM (inactive), the GI50 (HOP-62) was > 10 µM (inactive) and the GI50 (IGROV-1) was > 10 µM (inactive). For the same compound, the GI50 (K562) was > 10 µM (inactive), the GI50 (M14) was > 10 µM (inactive) and the GI50 (MCF7) was > 10 µM (inactive). For the same compound, the GI50 (MDA-MB-435) was > 10 µM (inactive), the GI50 (MOLT-4) was > 10 µM (inactive) and the GI50 (Malme-3M) was > 10 µM (inactive). For the same compound, the GI50 (NCI-H23) was > 10 µM (inactive), the GI50 (NCI-H460) was > 10 µM (inactive) and the GI50 (NCI/ADR-RES) was > 10 µM (inactive). For the same compound, the GI50 (OVCAR-4) was > 10 µM (inactive), the GI50 (OVCAR-5) was > 10 µM (inactive) and the GI50 (RPMI-8226) was > 10 µM (inactive). The GI50 (RXF 393) was > 10 µM (inactive), the GI50 (SF-268) was > 10 µM (inactive) and the GI50 (SK-MEL-28) was > 10 µM (inactive). The GI50 (SK-MEL-2) was > 10 µM (inactive), the GI50 (SK-MEL-5) was > 10 µM (inactive) and the GI50 (SK-OV-3) was > 10 µM (inactive). For the same compound, the GI50 (SNB-75) was > 10 µM (inactive), the GI50 (SR) was > 10 µM (inactive) and the GI50 (SW-620) was > 10 µM (inactive). For the same compound, the GI50 (T47D) was > 10 µM (inactive), the GI50 (U-251) was > 10 µM (inactive) and the GI50 (UACC-62) was > 10 µM (inactive).

`Sc1nn2c(Cc3ccccc3)nnc2s1` was tested, and the GI50 (786-0) was > 100 µM (inactive), the GI50 (A549) was > 100 µM (inactive) and the GI50 (ACHN) was > 100 µM (inactive). The GI50 (CAKI-1) was > 100 µM (inactive), the GI50 (CCRF-CEM) was > 100 µM (inactive) and the GI50 (COLO 205) was > 100 µM (inactive). For the same compound, the GI50 (DU-145) was > 100 µM (inactive), the GI50 (EKVX) was > 100 µM (inactive) and the GI50 (HCC 2998) was > 100 µM (inactive). For the same compound, the GI50 (HCT-116) was > 100 µM (inactive), the GI50 (HCT-15) was over 100 µM and the GI50 (HL-60) was > 100 µM (inactive). The GI50 (HOP-62) was > 100 µM (inactive), the GI50 (HOP-92) was > 100 µM (inactive) and the GI50 (HT-29) was > 100 µM (inactive). The GI50 (Hs-578T) was > 100 µM (inactive), the GI50 (IGROV-1) was > 100 µM (inactive) and the GI50 (K562) was > 100 µM (inactive). The GI50 (KM12) was > 100 µM (inactive), the GI50 (LOX IMVI) was > 100 µM (inactive) and the GI50 (M14) was > 100 µM (inactive). The GI50 (MCF7) was > 100 µM (inactive), the GI50 (MDA-MB-231) was > 100 µM (inactive) and the GI50 (MDA-MB-435) was > 100 µM (inactive). The GI50 (MOLT-4) was > 100 µM (inactive), the GI50 (Malme-3M) was > 100 µM (inactive) and the GI50 (NCI-H226) was 89.9 µM (inactive). For the same compound, the GI50 (NCI-H23) was > 100 µM (inactive), the GI50 (NCI-H460) was > 100 µM (inactive) and the GI50 (NCI-H522) was > 100 µM (inactive). For the same compound, the GI50 (NCI/ADR-RES) was > 100 µM (inactive), the GI50 (OVCAR-3) was > 100 µM (inactive) and the GI50 (OVCAR-4) was > 100 µM (inactive). The GI50 (OVCAR-5) was > 100 µM (inactive), the GI50 (OVCAR-8) was > 100 µM (inactive) and the GI50 (PC-3) was > 100 µM (inactive). The GI50 (RPMI-8226) was > 100 µM (inactive), the GI50 (RXF 393) was > 100 µM (inactive) and the GI50 (SF-268) was > 100 µM (inactive). For the same compound, the GI50 (SF-295) was > 100 µM (inactive), the GI50 (SF-539) was > 100 µM (inactive) and the GI50 (SK-MEL-28) was > 100 µM (inactive). The GI50 (SK-MEL-2) was > 100 µM (inactive), the GI50 (SK-MEL-5) was > 100 µM (inactive) and the GI50 (SK-OV-3) was > 100 µM (inactive). For the same compound, the GI50 (SN12C) was > 100 µM (inactive), the GI50 (SNB-19) was > 100 µM (inactive) and the GI50 (SW-620) was > 100 µM (inactive). For the same compound, the GI50 (T47D) was > 100 µM (inactive), the GI50 (TK-10) was > 100 µM (inactive) and the GI50 (U-251) was > 100 µM (inactive). For the same compound, the GI50 (UACC-257) was > 100 µM (inactive), the GI50 (UACC-62) was > 100 µM (inactive) and the GI50 (UO-31) was > 100 µM (inactive).
